ChEMBL document CHEMBL4028887, “Improvement of Cell Permeability of Human Neuronal Nitric Oxide Synthase Inhibitors Using Potent and Selective 2-Aminopyridine-Based Scaffolds with a Fluorobenzene Linker” (J Med Chem, 2017)

Columns and labels:
Nitric oxide synthase 1 [1] = target: Nitric oxide synthase 1 (Homo sapiens, UniProt P29475); experiment: Inhibition of human neuronal NOS expressed in Escherichia coli using L-arginine as substrate assessed as reduction in NO production by measuring oxidation of oxyHb to metHb measured for 6 mins by hemoglobin- NO capture assay
Chain of Nitric oxide synthase 1 (Homo sapiens, UniProt P29475) (P29475 whole entry): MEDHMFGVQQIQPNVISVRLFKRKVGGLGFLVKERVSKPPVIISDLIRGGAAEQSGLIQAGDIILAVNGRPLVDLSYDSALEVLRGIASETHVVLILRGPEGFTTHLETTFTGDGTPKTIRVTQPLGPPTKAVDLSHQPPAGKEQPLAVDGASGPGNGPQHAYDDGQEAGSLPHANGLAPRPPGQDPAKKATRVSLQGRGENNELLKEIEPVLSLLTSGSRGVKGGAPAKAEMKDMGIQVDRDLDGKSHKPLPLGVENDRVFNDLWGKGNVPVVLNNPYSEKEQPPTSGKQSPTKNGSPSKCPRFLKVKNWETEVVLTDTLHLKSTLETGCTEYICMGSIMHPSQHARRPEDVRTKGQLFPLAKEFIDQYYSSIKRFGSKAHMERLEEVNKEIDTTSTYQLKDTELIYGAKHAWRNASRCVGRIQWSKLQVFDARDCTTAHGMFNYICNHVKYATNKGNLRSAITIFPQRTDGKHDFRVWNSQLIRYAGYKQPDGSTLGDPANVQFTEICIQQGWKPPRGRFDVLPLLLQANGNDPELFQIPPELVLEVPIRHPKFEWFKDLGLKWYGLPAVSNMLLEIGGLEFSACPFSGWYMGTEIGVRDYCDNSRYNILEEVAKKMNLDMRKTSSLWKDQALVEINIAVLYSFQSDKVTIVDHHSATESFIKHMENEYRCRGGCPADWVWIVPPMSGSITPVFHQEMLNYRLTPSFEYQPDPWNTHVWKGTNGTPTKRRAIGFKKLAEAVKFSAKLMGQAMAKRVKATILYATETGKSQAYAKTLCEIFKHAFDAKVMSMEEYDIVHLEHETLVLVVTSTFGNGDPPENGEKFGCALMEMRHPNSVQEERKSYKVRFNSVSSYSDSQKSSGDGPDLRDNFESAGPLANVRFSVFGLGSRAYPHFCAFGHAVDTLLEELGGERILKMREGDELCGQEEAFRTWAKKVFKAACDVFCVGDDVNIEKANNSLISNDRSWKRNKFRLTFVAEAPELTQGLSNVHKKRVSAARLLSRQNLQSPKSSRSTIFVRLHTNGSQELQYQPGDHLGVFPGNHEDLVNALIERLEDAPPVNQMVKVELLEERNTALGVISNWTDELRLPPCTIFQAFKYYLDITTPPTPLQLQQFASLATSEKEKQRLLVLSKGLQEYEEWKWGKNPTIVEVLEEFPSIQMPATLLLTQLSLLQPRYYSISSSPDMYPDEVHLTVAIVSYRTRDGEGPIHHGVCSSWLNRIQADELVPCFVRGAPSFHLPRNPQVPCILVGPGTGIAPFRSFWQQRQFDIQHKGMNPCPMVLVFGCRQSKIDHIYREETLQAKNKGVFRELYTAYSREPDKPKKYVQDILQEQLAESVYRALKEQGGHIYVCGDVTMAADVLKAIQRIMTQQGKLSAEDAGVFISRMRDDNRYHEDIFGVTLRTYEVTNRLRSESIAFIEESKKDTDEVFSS

Nitric oxide synthase 3 = target: T1, Nitric oxide synthase 3 (Homo sapiens, UniProt P29474); assay type: ADME
T1 sequence (P29474 whole entry): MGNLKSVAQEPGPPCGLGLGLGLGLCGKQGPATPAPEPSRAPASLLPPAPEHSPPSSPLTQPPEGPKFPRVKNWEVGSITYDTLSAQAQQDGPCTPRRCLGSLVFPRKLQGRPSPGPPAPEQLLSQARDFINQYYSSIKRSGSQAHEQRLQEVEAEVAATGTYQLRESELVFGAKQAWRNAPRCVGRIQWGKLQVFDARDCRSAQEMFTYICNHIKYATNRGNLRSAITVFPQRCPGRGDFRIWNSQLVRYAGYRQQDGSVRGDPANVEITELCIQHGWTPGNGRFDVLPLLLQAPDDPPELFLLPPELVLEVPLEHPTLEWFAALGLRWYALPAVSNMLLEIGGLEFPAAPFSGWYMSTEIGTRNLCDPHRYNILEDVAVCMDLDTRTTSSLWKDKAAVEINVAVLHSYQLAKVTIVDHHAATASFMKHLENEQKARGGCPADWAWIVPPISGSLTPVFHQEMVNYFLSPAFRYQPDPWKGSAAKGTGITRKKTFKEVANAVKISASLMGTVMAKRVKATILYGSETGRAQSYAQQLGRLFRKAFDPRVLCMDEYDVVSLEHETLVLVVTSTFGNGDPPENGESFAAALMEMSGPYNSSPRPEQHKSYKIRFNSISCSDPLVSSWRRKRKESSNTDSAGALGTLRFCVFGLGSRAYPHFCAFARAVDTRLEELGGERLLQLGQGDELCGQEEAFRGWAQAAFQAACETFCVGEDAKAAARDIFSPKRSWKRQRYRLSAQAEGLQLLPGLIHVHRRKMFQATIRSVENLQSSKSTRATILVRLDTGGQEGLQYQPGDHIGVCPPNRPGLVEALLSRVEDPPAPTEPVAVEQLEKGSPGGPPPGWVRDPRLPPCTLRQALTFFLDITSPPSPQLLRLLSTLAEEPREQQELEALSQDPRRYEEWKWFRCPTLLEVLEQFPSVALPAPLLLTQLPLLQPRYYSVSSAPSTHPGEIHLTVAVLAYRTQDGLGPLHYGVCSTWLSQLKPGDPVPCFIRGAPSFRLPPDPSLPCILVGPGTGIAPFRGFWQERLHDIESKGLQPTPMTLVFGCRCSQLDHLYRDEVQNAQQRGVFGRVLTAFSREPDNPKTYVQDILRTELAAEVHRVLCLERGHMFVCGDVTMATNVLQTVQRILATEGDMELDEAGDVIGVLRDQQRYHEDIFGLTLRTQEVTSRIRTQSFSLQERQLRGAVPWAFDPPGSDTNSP

Nitric oxide synthase 1 [2] = target: Nitric oxide synthase 1 (Rattus norvegicus, UniProt P29476)
Chain of Nitric oxide synthase 1 (Rattus norvegicus, UniProt P29476) (P29476 whole entry): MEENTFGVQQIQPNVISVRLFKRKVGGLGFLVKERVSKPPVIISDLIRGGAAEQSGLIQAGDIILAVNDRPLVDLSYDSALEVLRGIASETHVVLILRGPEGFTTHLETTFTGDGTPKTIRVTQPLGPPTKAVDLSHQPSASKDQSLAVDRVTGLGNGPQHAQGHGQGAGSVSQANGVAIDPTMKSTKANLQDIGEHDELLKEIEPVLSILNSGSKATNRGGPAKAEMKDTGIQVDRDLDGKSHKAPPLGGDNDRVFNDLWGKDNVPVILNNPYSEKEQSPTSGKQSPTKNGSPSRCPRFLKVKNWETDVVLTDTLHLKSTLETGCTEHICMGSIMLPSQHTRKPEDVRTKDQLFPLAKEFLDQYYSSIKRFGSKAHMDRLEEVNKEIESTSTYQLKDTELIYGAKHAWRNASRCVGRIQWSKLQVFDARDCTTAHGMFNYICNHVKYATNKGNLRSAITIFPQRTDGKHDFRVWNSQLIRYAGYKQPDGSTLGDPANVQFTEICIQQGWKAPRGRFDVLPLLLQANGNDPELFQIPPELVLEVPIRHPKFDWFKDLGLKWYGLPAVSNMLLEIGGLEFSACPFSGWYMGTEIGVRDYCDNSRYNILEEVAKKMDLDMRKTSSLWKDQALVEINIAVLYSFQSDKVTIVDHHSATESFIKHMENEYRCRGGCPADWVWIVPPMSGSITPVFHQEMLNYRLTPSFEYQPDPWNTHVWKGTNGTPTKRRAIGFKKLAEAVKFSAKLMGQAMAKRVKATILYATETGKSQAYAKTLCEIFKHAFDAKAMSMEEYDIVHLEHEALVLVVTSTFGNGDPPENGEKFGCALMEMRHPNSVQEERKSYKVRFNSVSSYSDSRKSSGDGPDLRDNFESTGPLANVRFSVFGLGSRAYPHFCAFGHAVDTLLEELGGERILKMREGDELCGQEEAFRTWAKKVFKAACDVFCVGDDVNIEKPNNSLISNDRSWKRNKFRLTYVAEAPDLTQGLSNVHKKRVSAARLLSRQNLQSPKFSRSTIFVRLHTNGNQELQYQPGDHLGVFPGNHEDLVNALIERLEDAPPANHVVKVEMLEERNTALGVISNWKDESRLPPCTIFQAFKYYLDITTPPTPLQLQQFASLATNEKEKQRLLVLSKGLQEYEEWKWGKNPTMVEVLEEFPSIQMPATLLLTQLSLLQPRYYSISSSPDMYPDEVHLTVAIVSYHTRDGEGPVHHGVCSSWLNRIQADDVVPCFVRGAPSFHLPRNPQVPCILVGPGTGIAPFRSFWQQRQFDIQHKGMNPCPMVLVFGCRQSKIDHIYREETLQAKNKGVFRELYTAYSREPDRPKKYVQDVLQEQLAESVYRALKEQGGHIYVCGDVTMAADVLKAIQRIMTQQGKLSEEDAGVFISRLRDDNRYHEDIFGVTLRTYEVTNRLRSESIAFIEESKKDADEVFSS

[3] = target: T2, Nitric oxide synthase, inducible (Mus musculus, UniProt P29477)
T2 sequence (P29477 whole entry): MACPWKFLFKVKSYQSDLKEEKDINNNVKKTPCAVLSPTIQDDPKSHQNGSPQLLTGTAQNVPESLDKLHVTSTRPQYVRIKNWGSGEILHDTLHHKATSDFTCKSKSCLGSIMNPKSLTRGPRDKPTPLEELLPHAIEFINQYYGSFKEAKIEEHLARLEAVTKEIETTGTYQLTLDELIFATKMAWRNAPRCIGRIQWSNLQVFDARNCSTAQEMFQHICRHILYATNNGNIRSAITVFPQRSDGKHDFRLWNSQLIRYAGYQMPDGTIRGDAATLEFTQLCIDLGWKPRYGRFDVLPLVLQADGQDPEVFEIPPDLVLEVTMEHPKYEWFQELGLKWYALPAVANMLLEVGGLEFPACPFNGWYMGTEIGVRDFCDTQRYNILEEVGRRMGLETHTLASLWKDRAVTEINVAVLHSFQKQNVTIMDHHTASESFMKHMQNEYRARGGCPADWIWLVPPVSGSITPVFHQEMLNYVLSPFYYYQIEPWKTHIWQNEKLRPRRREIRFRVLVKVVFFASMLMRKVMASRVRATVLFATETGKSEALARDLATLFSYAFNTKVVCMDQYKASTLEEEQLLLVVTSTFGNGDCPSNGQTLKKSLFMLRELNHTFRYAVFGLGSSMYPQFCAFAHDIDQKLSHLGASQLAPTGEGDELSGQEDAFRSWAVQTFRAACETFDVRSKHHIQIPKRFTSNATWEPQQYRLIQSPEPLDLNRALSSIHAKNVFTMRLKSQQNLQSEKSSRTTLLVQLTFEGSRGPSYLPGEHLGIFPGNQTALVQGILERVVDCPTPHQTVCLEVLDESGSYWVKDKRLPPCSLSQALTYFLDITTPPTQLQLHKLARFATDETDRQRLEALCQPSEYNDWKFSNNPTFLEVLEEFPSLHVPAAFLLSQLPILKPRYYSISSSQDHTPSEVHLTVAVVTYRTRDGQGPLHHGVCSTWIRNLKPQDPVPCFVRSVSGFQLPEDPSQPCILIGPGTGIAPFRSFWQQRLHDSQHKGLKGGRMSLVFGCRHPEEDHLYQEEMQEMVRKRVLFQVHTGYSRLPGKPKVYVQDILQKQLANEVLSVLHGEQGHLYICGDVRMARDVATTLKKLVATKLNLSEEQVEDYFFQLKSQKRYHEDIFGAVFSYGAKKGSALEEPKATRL

physchem = conditions: PAMPA
Description: Effective permeability of compound at 200 uM after 17 hrs by PAMPA-BBB assay

Structure (SMILES) | Ki (Nitric oxide synthase 1 [1]) [nM] | Ki (Nitric oxide synthase 3) [nM] | Ki (Nitric oxide synthase 1 [2]) [nM] | Ki [3] [nM] | Papp at 17 h, 200 µM (physchem) [×10⁻⁶ cm/s]
CNCCCc1cccc(CCc2cc(C)cc(N)n2)c1 | 55 | 20100 | 48 | 3610 | 10.4
CNCCCc1cc(F)cc(CCc2cc(C)cc(N)n2)c1 | 65 | 39500 | 41 | 4650 | 
CNc1cccc(-c2cncc(CCc3cc(C)cc(N)n3)c2)c1 |  |  | 1700 | 6700 | 
CNCCCc1cc(C#N)cc(CCc2cc(C)cc(N)n2)c1 | 516 | 42100 | 252 | 16200 | 
CNCCCc1cc(CCc2cc(C)cc(N)n2)cc(C(F)(F)F)c1 | 598 | 51500 | 346 | 33700 | 
Cc1cc(N)nc(CCc2cc(CCCN(C)C)cc(C(F)(F)F)c2)c1 |  |  | 541 | 36000 | 
Cc1cc(N)nc(CCc2cc(C#N)cc(CCCN(C)C)c2)c1 |  |  | 232 | 16400 | 
CNCc1ccc(-c2cc(F)cc(CCc3cc(C)cc(N)n3)c2)cc1 | 362 | 69900 | 185 | 10900 | 
CNCc1cccc(-c2cc(F)cc(CCc3cc(C)cc(N)n3)c2)c1 | 83 | 19400 | 44 | 3010 | 17.4
Cc1cc(N)nc(CCc2cccc(CCCN(C)C)c2)c1 | 43 | 20800 | 60 | 3460 | 
CNCc1ccc(-c2cncc(CCc3cc(C)cc(N)n3)c2)cc1 | 100 |  | 57 | 4210 | 
CNCc1cccc(-c2cncc(CCc3cc(C)cc(N)n3)c2)c1 | 82 | 8670 | 47 | 3010 | 5.56
